Measured values reported in ChEMBL document CHEMBL1130203, “Novel fluoroquinolone antibacterial agents containing oxime-substituted (aminomethyl)pyrrolidines: synthesis and antibacterial activity of 7-(4-(aminomethyl)-3-(methoxyimino)pyrrolidin-1-yl)-1-cyclopropyl-6- fluoro-4-oxo-1,4-dihydro[1,8]naphthyridine-3-carboxylic acid (LB20304)” (J Med Chem, 1997).
In brackets after ≈: the same amount, converted by molar mass.

Legend:
Staphylococcus aureus [1] = test: Minimum inhibitory concentration (MIC) against Staphylococcus aureus giorgio; type: functional
Escherichia coli [2] = test: Minimum inhibitory concentration (MIC) against Escherichia coli 3190Y; type: functional
Pseudomonas aeruginosa [3] = test: Minimum inhibitory concentration (MIC) against Pseudomonas aeruginosa 1912E; type: functional; conditions: Pseudomonas aeruginosa; read-out: MIC
Staphylococcus aureus [4] = test: Minimum inhibitory concentration (MIC) against Staphylococcus aureus 6538p.; type: functional
Staphylococcus aureus [5] = test: Minimum inhibitory concentration (MIC) against Staphylococcus aureus 241; type: functional; conditions: Staphylococcus aureus; read-out: MIC
Escherichia coli [6] = test: Minimum inhibitory concentration (MIC) against Escherichia coli TEM9 2639E; type: functional; conditions: Escherichia coli; read-out: MIC
Enterobacter cloacae = test: Minimum inhibitory concentration (MIC) against Enterobacter cloacae P99; type: functional
[7] = system: Staphylococcus epidermidis; test: Minimum inhibitory concentration (MIC) against Staphylococcus epidermidis 178; type: functional; conditions: Staphylococcus epidermidis; read-out: MIC
Enterococcus faecalis = test: Minimum inhibitory concentration (MIC) against Streptococcus faecalis 29212; type: functional; conditions: Enterococcus faecalis; read-out: MIC
Escherichia coli [8] = test: Minimum inhibitory concentration (MIC) against Escherichia coli 10536; type: functional
Klebsiella aerogenes = test: Minimum inhibitory concentration (MIC) against Klebsiella aerogenes 1082E; type: functional; conditions: Klebsiella aerogenes; read-out: MIC
[9] = system: Staphylococcus epidermidis; test: Minimum inhibitory concentration (MIC) against Staphylococcus epidermidis 887E; type: functional
Bacillus subtilis = test: Minimum inhibitory concentration (MIC) against Bacillus subtilis ATCC 6633; type: functional
[10] = system: Acinetobacter calcoaceticus; test: Minimum inhibitory concentration (MIC) against Acinetobacter calcoaceticus 15473; type: functional; conditions: Acinetobacter calcoaceticus; read-out: MIC
[11] = system: Acinetobacter calcoaceticus; test: Minimum inhibitory concentration (MIC) against Acinetobacter calcoaceticus; type: functional
Mus musculus [12] = species: Mus musculus; test: 50% Effective Dose against systemic infection in mouse by Staphylococcus aureus giorgo; type: functional
Streptococcus pneumoniae = test: Minimum inhibitory concentration (MIC) against Streptococcus pneumoniae 77A
[13] = maximum Plasma concentration in Rats was determined after Peroral administration; type: ADME, organism-based; design: route oral; conditions: rat, po
[14] = Half-life in Rats was determined after Peroral administration; type: ADME, organism-based; conditions: rat, in vivo, po
[15] = Tmax was determined in Rats after Peroral administration; type: ADME, organism-based; conditions: rat, in vivo, po
Mus musculus [16] = species: Mus musculus; test: 50% Effective Dose against systemic infection in mouse by Escherichia coli 851E; type: functional
[17] = Oral bioavailability in rat; type: ADME, organism-based; conditions: in vivo
[18] = Area under curve was determined in Rats after peroral administration; type: ADME, organism-based; conditions: rat, in vivo, po
Pseudomonas aeruginosa [19] = test: Minimum inhibitory concentration (MIC) against Pseudomonas aeruginosa 1912E
Mus musculus [20] = species: Mus musculus; test: 50% Effective Dose against systemic infection in mouse by Pseudomonas aeruginosa 1912E; type: functional
Escherichia coli [21] = test: Minimum inhibitory concentration (MIC) against Escherichia coli 851E
Staphylococcus aureus [22] = test: Minimum inhibitory concentration (MIC) against Staphylococcus aureus giorgo

SMILES | MIC (Staphylococcus aureus [1]) [µg/mL] | MIC (Escherichia coli [2]) [µg/mL] | MIC (Pseudomonas aeruginosa [3]) [µg/mL] | MIC (Staphylococcus aureus [4]) [µg/mL] | MIC (Staphylococcus aureus [5]) [µg/mL] | MIC (Escherichia coli [6]) [µg/mL] | MIC (Enterobacter cloacae) [µg/mL] | MIC [7] [µg/mL] | MIC (Enterococcus faecalis) [µg/mL] | MIC (Escherichia coli [8]) [µg/mL] | MIC (Klebsiella aerogenes) [µg/mL] | MIC [9] [µg/mL] | MIC (Bacillus subtilis) [µg/mL] | MIC [10] [µg/mL] | other results
CC(C)(C)O/N=C1\CN(c2nc3c(cc2F)c(=O)c(C(=O)O)cn3C2CC2)CC1CN (stereo not drawn) | < 0.008 | 0.016 (≈ 0.0371 µM) | 2 (≈ 4.64 µM) | 0.008 (≈ 0.0185 µM) | 1 (≈ 2.32 µM) | 0.063 (≈ 0.146 µM) | ≤ 0.008 | 1 (≈ 2.32 µM) | 0.063 (≈ 0.146 µM) | ≤ 0.008 | 0.25 (≈ 0.579 µM) | < 0.008 | < 0.008 | 0.031 (≈ 0.0718 µM) | 
CO/N=C1\CN(c2nc3c(cc2F)c(=O)c(C(=O)O)cn3-c2ccc(F)cc2F)CC1CN (stereo not drawn) | 0.031 (≈ 0.0672 µM) | 0.008 (≈ 0.0173 µM) | 0.5 (≈ 1.08 µM) | 0.031 (≈ 0.0672 µM) | 8 (≈ 17.3 µM) | 0.25 (≈ 0.542 µM) | 0.063 (≈ 0.137 µM) | 8 (≈ 17.3 µM) | 0.13 (≈ 0.282 µM) | 0.063 (≈ 0.137 µM) | 0.25 (≈ 0.542 µM) | 0.016 (≈ 0.0347 µM) | 0.016 (≈ 0.0347 µM) | 0.13 (≈ 0.282 µM) | 
CO/N=C1\CN(c2nc3c(cc2F)c(=O)c(C(=O)O)cn3C2CC2)CC1CN(C)C (stereo not drawn) | 0.13 (≈ 0.311 µM) | 0.063 (≈ 0.151 µM) | 16 (≈ 38.3 µM) | 0.13 (≈ 0.311 µM) | 32 (≈ 76.7 µM) | 1 (≈ 2.4 µM) | 0.13 (≈ 0.311 µM) | 16 (≈ 38.3 µM) | 1 (≈ 2.4 µM) | 0.13 (≈ 0.311 µM) | 0.016 (≈ 0.0383 µM) | 0.13 (≈ 0.311 µM) | 0.016 (≈ 0.0383 µM) | 0.5 (≈ 1.2 µM) | 
NCC1CN(c2nc3c(cc2F)c(=O)c(C(=O)O)cn3C2CC2)C/C1=N\Oc1ccccc1 (stereo not drawn) | 0.016 (≈ 0.0354 µM) | 0.016 (≈ 0.0354 µM) | 2 (≈ 4.43 µM) | 0.016 (≈ 0.0354 µM) | < 0.008 | 0.13 (≈ 0.288 µM) | 0.031 (≈ 0.0687 µM) | 16 (≈ 35.4 µM) | 0.13 (≈ 0.288 µM) | 0.031 (≈ 0.0687 µM) | 0.13 (≈ 0.288 µM) | < 0.008 | < 0.008 | 0.016 (≈ 0.0354 µM) | 
CO/N=C1\CN(c2nc3c(cc2F)c(=O)c(C(=O)O)cn3C2CC2)CC1CN (stereo in doubt) [GEMIFLOXACIN] | < 0.008 | < 0.008 | 0.25 (≈ 0.642 µM) | < 0.008 | 4 (≈ 10.3 µM) | 0.031 (≈ 0.0796 µM) | < 0.008 | 4 (≈ 10.3 µM) | 0.063 (≈ 0.162 µM) | < 0.008 | 0.031 (≈ 0.0796 µM) | < 0.008 | < 0.008 | 0.063 (≈ 0.162 µM) | 

Second part, led by results:

MIC (Staphylococcus aureus [1]) [µg/mL] | MIC (Escherichia coli [2]) [µg/mL] | MIC (Pseudomonas aeruginosa [3]) [µg/mL] | MIC (Staphylococcus aureus [4]) [µg/mL] | MIC (Staphylococcus aureus [5]) [µg/mL] | MIC (Escherichia coli [6]) [µg/mL] | MIC (Enterobacter cloacae) [µg/mL] | MIC [7] [µg/mL] | MIC (Enterococcus faecalis) [µg/mL] | MIC (Escherichia coli [8]) [µg/mL] | MIC (Klebsiella aerogenes) [µg/mL] | MIC [9] [µg/mL] | MIC (Bacillus subtilis) [µg/mL] | MIC [10] [µg/mL] | SMILES | other results
0.13 (≈ 0.322 µM) | 0.063 (≈ 0.156 µM) | 2 (≈ 4.96 µM) | 0.063 (≈ 0.156 µM) | 128 (≈ 317 µM) | 0.5 (≈ 1.24 µM) | 0.13 (≈ 0.322 µM) | 128 (≈ 317 µM) | 0.5 (≈ 1.24 µM) | 0.063 (≈ 0.156 µM) | 0.5 (≈ 1.24 µM) | 0.13 (≈ 0.322 µM) | 0.25 (≈ 0.62 µM) | 1 (≈ 2.48 µM) | CNCC1CN(c2nc3c(cc2F)c(=O)c(C(=O)O)cn3C2CC2)C/C1=N\OC (stereo not drawn) | 
< 0.008 | < 0.008 | 0.25 (≈ 0.615 µM) | < 0.008 | 0.5 (≈ 1.23 µM) | 0.031 (≈ 0.0763 µM) | 0.016 (≈ 0.0394 µM) | 0.5 (≈ 1.23 µM) | 0.031 (≈ 0.0763 µM) | < 0.008 | 0.031 (≈ 0.0763 µM) | < 0.008 | < 0.008 |  | CO/N=C1\CN(c2c(F)cc3c(=O)c(C(=O)O)cn(C4CC4)c3c2F)CC1CN (stereo not drawn) | MIC [11]: 0.031 µg/mL (≈ 0.0763 µM)
0.031 (≈ 0.0895 µM) | < 0.008 | 0.5 (≈ 1.44 µM) | 0.031 (≈ 0.0895 µM) | 16 (≈ 46.2 µM) | 0.063 (≈ 0.182 µM) | 0.031 (≈ 0.0895 µM) | 32 (≈ 92.4 µM) | 0.13 (≈ 0.375 µM) | 0.031 (≈ 0.0895 µM) | 0.063 (≈ 0.182 µM) | 0.016 (≈ 0.0462 µM) | 0.016 (≈ 0.0462 µM) | 0.13 (≈ 0.375 µM) | NCC1CCN(c2nc3c(cc2F)c(=O)c(C(=O)O)cn3C2CC2)C1 (stereo not drawn) | ED50 (Mus musculus [12]): 8.03 mg/kg; MIC (Streptococcus pneumoniae): 0.063 µg/mL (≈ 0.182 µM); Cmax [13]: 300 ng/mL; half-life [14]: 2.2 h; Tmax [15]: 0.17 h; ED50 (Mus musculus [16]): > 13.5 mg/kg; bioavailability [17]: 10.1%; AUC [18]: 380 ng·h/mL; MIC (Pseudomonas aeruginosa [19]): 0.5 µg/mL (≈ 1.44 µM); ED50 (Mus musculus [20]): 29.8 mg/kg; MIC (Escherichia coli [21]): 0.031 µg/mL (≈ 0.0895 µM); MIC (Staphylococcus aureus [22]): 0.031 µg/mL (≈ 0.0895 µM)
< 0.008 | < 0.008 | 1 (≈ 2.4 µM) | 0.008 (≈ 0.0192 µM) | 2 (≈ 4.79 µM) | 0.063 (≈ 0.151 µM) | < 0.008 | 1 (≈ 2.4 µM) | 0.063 (≈ 0.151 µM) | < 0.008 | 0.13 (≈ 0.311 µM) | < 0.008 | < 0.008 | 0.031 (≈ 0.0743 µM) | CCCO/N=C1\CN(c2nc3c(cc2F)c(=O)c(C(=O)O)cn3C2CC2)CC1CN (stereo not drawn) | 
